Source: US11065335B2, “Methods of treating leukemia using compositions containing bis(benzylthio)octanoic acid and ion pairs thereof” (Rafael Pharmaceuticals, Inc., priority 2007, dated 2021)
Counter-ions that a name gives are not always drawn.

Columns and labels:
in vitro [1] = settings: human, A2780 Cell Viability; for viability: 24 hrs; for viability at 24 h, 800 μM / viability at 24 h, 1600 μM / viability at 24 h, 3200 μM: A2780 ovarian cancer cells
Procedure: (§1) Two types of human tumor cells were used in this investigation: BXPC3 human pancreatic cancer cells and A2780 human ovarian cancer cells. The BXPC3 cells were originally obtained from American Type Cell Culture (ATCC). The ovarian tumor cells were gifts from Roswell Park Cancer Institute, Buffalo, N.Y. All tumor cells were maintained at 37° C. in a humidified 5% CO2 atmosphere in T75 tissue culture flasks containing 20 mL of Roswell Park Memorial Institute (RPMI) 1640 containing 2 mM L-glutamine, 10% fetal bovine serum (FBS) and 1% penicillin and streptomycin (100 IU/mL penicillin and 100 μg/mL streptomycin). The tumor cells were split at a ratio of 1:5 every 4-5 days by trypsinization and resuspended in fresh medium in a new flask. Cells were harvested for experiments at 70-90% confluency.
(§2) CPI-613 (i.e., 6,8-bis(benzylthio)octanoic acid) stock solutions at concentrations of 8, 4, 2, 1.5 and 0.5 mM were prepared in the appropriate vehicles. The molar ratio of vehicle to CPI-613 was maintained at 8:1. The corresponding vehicle concentrations were 64, 32, 16, 12, and 4 mM respectively. A sixty-four mM aliquot of vehicle was dissolved in 10 mL of water. Next, 8 mM of CPI-613 was added and the mixture was stirred until a clear solution was obtained. […] A 5 μL aliquot of this stock solution was added to 95 μL of tumor cells in media. Upon dilution in the wells, the corresponding drug concentrations were 400, 200, 100, 75 and 25 μM respectively.
(§3) For the sodium salt and potassium salt form of CPI-613, 1 equivalent of CPI-613 solid was dissolved in water. Sixty-two mg of CPI-613 (0.00016 mol) was added to 10 mL of water, then 165 μL of 1M NaOH or KOH was added and stirred until a clear solution was obtained. This gave a 16 mM solution. The resulting 16 mM solution was then serially diluted, thereby providing 8 mM and 4 mM solutions of the CPI-613 salt form. For the ammonium salt, vehicle to drug ratio was maintained at 8:1 and the formulation was prepared using procedures analogous to those described above in Section 2 relating to preparation of CPI-613 formulations in different vehicles.
(§4) CPI-613 formulated in 1M triethanolamine (TEA) was used as an internal control during formulation screening. To prepare a 16 mM of working stock of CPI-613, 50 mg/mL of CPI-613 (128.66 mM of CPI-613 in 1M TEA) was diluted in complete cell culture media containing 10% FBS. That is, 310 μL of a 128.66 mM solution of CPI-613 in 1M TEA was added to 2.19 mL of cell culture media. This stock was further diluted serially in complete media to give 8 mM, 4 mM 2 mM, 1.5 mM and 0.5 mM working solutions. On the day of testing, 5 μL of this working solution was added to 95 μL of cell culture media (20 fold dilution) resulting final concentrations of 400, 200, 100, 75 and 25 μM CPI-613, respectively. The ratio of CPI-613 to TEA was maintained at 1:8 ratio at all times.
(§5) The cell viability of CPI-613 formulations formulated at a ratio of 1:8, CPI-613 to vehicle, was assessed by exposing the A2780 ovarian tumor cells and BXPC3 human pancreatic cancer cells to the following CPI-613 concentrations: 400 μM (3200 μM vehicle), 200 μM (1600 μM vehicle), 100 μM (800 μM vehicle), 75 μM (600 μM vehicle) and 25 μM (200 μM vehicle) The impact of corresponding vehicles at 3200, 1600 and 800 μM concentrations was also tested in tumor cells for cell viability. […] CPI-613 in TEA was used as an internal control. The tumor cells were treated for 24 hrs with the test article in serum-containing medium. After 24 hrs of treatment the number of viable tumor cells was determined.
(§6) The number of cells targeted for the study was 4×10^3 per well in 100 μL of medium. The actual number of cells were counted and seeded in the wells of a 96 well-plate. The cells were incubated for ˜24 hrs before addition of CPI-613.
(§7) For each cell line the concentrations of test articles or vehicles specified above was used.

in vitro [2] = settings: human, BXPC3 Cell Viability; for viability: 24 hrs; for viability at 24 h, 800 μM / viability at 24 h, 1600 μM / viability at 24 h, 3200 μM: BXPC3 pancreatic cancer cells
Procedure: as §1, §2, §3, §4, §5, §6, §7

[3] = test system: A2780 ovarian tumor cells and BXPC3 human pancreatic cancer cells; assay: CellTiter Glo cell viability assay, text statements not split by cell line; assay type: cell-based; settings: vehicle alone 3200 μM
Procedure: Two types of human tumor cells were used in this investigation: BXPC3 human pancreatic cancer cells and A2780 human ovarian cancer cells. The BXPC3 cells were originally obtained from American Type Cell Culture (ATCC). […] The tumor cells were split at a ratio of 1:5 every 4-5 days by trypsinization and resuspended in fresh medium in a new flask. Cells were harvested for experiments at 70-90% confluency.
The corresponding vehicle concentrations were 64, 32, 16, 12, and 4 mM respectively. A sixty-four mM aliquot of vehicle was dissolved in 10 mL of water. […] A 5 μL aliquot of this stock solution was added to 95 μL of tumor cells in media. Upon dilution in the wells, the corresponding drug concentrations were 400, 200, 100, 75 and 25 μM respectively.
This gave a 16 mM solution.
This stock was further diluted serially in complete media to give 8 mM, 4 mM 2 mM, 1.5 mM and 0.5 mM working solutions.
The tumor cells were treated for 24 hrs with the test article in serum-containing medium. After 24 hrs of treatment the number of viable tumor cells was determined.
The number of cells targeted for the study was 4×10^3 per well in 100 μL of medium. The actual number of cells were counted and seeded in the wells of a 96 well-plate.
For each cell line the concentrations of test articles or vehicles specified above was used. Five μL of the working solution for each test article or vehicle was added to 95 μL of cell culture media. The corresponding final concentrations of test articles are 20 fold more diluted than the working solutions. […] Additionally, a set of wells was treated with cell culture medium in the absence of cells to obtain a value for background luminescence.
The number of viable cells was determined by using the CellTiter Glo® Assay. Specifically, reagents were mixed and allowed to come to room temperature according to instructions from Promega, Inc. (Madison, Wis.). Cell plates were removed from the cell culture incubator and left on the bench for 30 minutes until they reach room temperature. A one-hundred μL aliquot CellTiter Glo® reagent was added to each well with a 12-channel Eppendorf pipettor. The cells were lysed by shaking the plate for 2 minutes in a shaker. Then, the cells were kept at room temperature for 10 minutes to stabilize the luminescent signal. The luminescence was measured using the FLUOstar OPTIMA plate reader (BMG Labtech, Inc., Durham, N.C.).
Data from luminescence readings was copied onto EXCEL spreadsheets, and cell growth relative to untreated cells was calculated, using the following equation: […]
The calculated values were imported into SigmaPlot, v11. A Four-Parameter Logistic Curve of the “mean relative cell growth as a function of the concentrations of the test articles” was generated. The EC50 values were determined from the curves. The R-squared value provides an indication of the degree of fitness of data to the curve. For each experiment, the percentage of viable cells was be expressed as the mean of 9 replicates. The average was calculated by taking the mean±standard deviation of the three experiments.

[4] = test system: A2780 human ovarian cancer cells; assay: CellTiter Glo cell viability assay, A2780 cells; settings: 24 hrs; for A2780 Cell Viability (alkali salt formulations): CPI-613 to base 1:1
Procedure: as §1, §2, §3, §4, §5, §6, §7

[5] = test system: BXPC3 human pancreatic cancer cells; assay: CellTiter Glo cell viability assay, BXPC3 cells; settings: 24 hrs; for BXPC3 Cell Viability (alkali salt formulations): CPI-613 to base 1:1
Procedure: as §1, §2, §3, §4, §5, §6, §7

Row | Compound | impact of vehicle on cancer cell killing [3] | viability at 24 h, 800 μM (in vitro [1]; vehicle alone 800 μM) [%] | viability at 24 h, 1600 μM (in vitro [1]; vehicle alone 1600 μM) [%] | viability at 24 h, 3200 μM (in vitro [1]; vehicle alone 3200 μM) [%] | viability at 24 h, 800 μM (in vitro [2]; vehicle alone 800 μM) [%] | viability at 24 h, 1600 μM (in vitro [2]; vehicle alone 1600 μM) [%] | viability at 24 h, 3200 μM (in vitro [2]; vehicle alone 3200 μM) [%] | also measured
1 | CC(O)CN(CC(C)O)CC(C)O (stereo not shown) [Triisopropanolamine] | appear to have come cell killing effects | – | – | – | – | – | – | viability (in vitro [1]; vehicle alone 800 μM): > 95%; viability (in vitro [1]; vehicle alone 1600 μM): > 95%; viability (in vitro [1]; vehicle alone 3200 μM): 70 to 85%; viability (in vitro [2]; vehicle alone 800 μM): > 95%; viability (in vitro [2]; vehicle alone 1600 μM): > 95%; viability (in vitro [2]; vehicle alone 3200 μM): 70 to 85%
2 | NC(CO)(CO)CO [Tris base] | did not show a significant impact on cancer cell killing | > 95 | > 95 | > 95 | > 95 | > 95 | > 95 | –
3 | CNC[C@H](O)[C@@H](O)[C@H](O)[C@H](O)CO [Meglumine] | did not show a significant impact on cancer cell killing | – | – | – | – | – | – | viability (in vitro [1]; vehicle alone 800 μM): > 95%; viability (in vitro [1]; vehicle alone 1600 μM): > 95%; viability (in vitro [1]; vehicle alone 3200 μM): > 95%; viability (in vitro [2]; vehicle alone 800 μM): 85 to 95%; viability (in vitro [2]; vehicle alone 1600 μM): 85 to 95%; viability (in vitro [2]; vehicle alone 3200 μM): 85 to 95%
4 | Aminopropanediol | did not show a significant impact on cancer cell killing | – | – | – | – | – | – | –
5 | OCCNCCO [Diethanolamine] | did not show a significant impact on cancer cell killing | 85 to 95 | 85 to 95 | > 95 | 85 to 95 | 85 to 95 | 85 to 95 | –
6 | NCCCO [3-amino-1-proponol] | did not show a significant impact on cancer cell killing | – | – | – | – | – | – | –
7 | C1CNCCN1 [Piperazine] | did not show a significant impact on cancer cell killing | 85 to 95 | 70 to 85 | 85 to 95 | 85 to 95 | 85 to 95 | 70 to 85 | –
8 | NCCN [Ethylenediamine] | appear to have come cell killing effects | 85 to 95 | 85 to 95 | < 70 | > 95 | 70 to 85 | < 70 | –
9 | NCCCC[C@H](N)C(=O)O [Lysine] | did not show a significant impact on cancer cell killing | > 95 | > 95 | > 95 | > 95 | > 95 | > 95 | –
10 | CCN(CC)CC [Triethylamine] | did not show a significant impact on cancer cell killing | > 95 | > 95 | > 95 | > 95 | > 95 | > 95 | –
11 | NCCO [Ethanolamine] | – | > 95 | > 95 | > 95 | 85 to 95 | 85 to 95 | 85 to 95 | –
12 | CC(O)CNCC(C)O (stereo not shown) [Diisopropanolamine] | appear to have come cell killing effects | – | – | – | – | – | – | –
13 | O=C(O)CCCCC(CCSCc1ccccc1)SCc1ccccc1 (stereo not shown) [CPI-613 potassium salt] | – | – | – | – | – | – | – | A2780 Cell Viability (alkali salt formulations) ([4]; CPI-613 25 μM): ++ (tumor cell viability of >70% up to 95%); A2780 Cell Viability (alkali salt formulations) ([4]; CPI-613 75 μM): ++ (tumor cell viability of >70% up to 95%); A2780 Cell Viability (alkali salt formulations) ([4]; CPI-613 100 μM): ++ (tumor cell viability of >70% up to 95%); A2780 Cell Viability (alkali salt formulations) ([4]; CPI-613 200 μM): +++ (tumor cell viability of >30% up to 70%); A2780 Cell Viability (alkali salt formulations) ([4]; CPI-613 400 μM): +++++ (tumor cell viability of ≤10%); cell kill in A2780 cells ([4]; salt formulation at 200 μM): ~65%; cell kill in A2780 cells ([4]; salt formulation at 400 μM): all the cells were killed; BXPC3 Cell Viability (alkali salt formulations) ([5]; CPI-613 25 μM): + (tumor cell viability of >95%); BXPC3 Cell Viability (alkali salt formulations) ([5]; CPI-613 75 μM): ++ (tumor cell viability of >70% up to 95%); BXPC3 Cell Viability (alkali salt formulations) ([5]; CPI-613 100 μM): ++ (tumor cell viability of >70% up to 95%); BXPC3 Cell Viability (alkali salt formulations) ([5]; CPI-613 200 μM): +++ (tumor cell viability of >30% up to 70%); BXPC3 Cell Viability (alkali salt formulations) ([5]; CPI-613 400 μM): +++++ (tumor cell viability of ≤10%); cell kill in BXPC3 cells ([5]; salt formulation at 200 μM): ~50%; cell kill in BXPC3 cells ([5]; salt formulation at 400 μM): all the cells were killed
